Measured values: article PMC8234231, “In Vitro Inhibition of Renal OCT2 and MATE1 Secretion by Antiemetic Drugs” (International Journal of Molecular Sciences, 2021)
“Also recorded” adds a separate entry of the source.

What was measured:
[1] = molecular target: T1, MATE1 (Homo sapiens, UniProt Q96FL8); experiment: Concentration-dependent uptake of ASP+ in MATE1-expressing HEK293 cells; type: cell-based
T1 construct: expressed in transfected cells; gift of Dr. Kathy Giacomini, UCSF
T1 sequence (Q96FL8 1-570): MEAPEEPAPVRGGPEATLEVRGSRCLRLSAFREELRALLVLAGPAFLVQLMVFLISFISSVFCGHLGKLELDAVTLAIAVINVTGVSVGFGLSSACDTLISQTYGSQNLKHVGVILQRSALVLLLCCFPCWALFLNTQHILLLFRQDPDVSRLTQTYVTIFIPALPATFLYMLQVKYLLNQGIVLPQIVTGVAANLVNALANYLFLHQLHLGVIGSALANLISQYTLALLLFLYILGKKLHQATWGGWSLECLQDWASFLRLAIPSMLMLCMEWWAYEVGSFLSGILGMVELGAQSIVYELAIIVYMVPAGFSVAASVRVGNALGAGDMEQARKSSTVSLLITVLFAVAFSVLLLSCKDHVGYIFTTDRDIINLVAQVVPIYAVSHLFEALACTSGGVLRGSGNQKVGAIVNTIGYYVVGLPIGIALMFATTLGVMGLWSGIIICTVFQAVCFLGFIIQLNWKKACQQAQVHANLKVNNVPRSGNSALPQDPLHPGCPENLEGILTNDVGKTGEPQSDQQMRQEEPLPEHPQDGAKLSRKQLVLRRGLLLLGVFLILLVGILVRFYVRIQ
Method: After washing once with prewarmed Hank’s Buffered Saline Solution (HBSS), cells were preincubated for 30 min at 37 °C with various 5-HT3 antagonists for OCT2 cells or in a 30 mM NH4Cl solution in HBSS at pH 6.5 for MATE1 cells for intracellular acidification. […] […] […] Media was removed and washed four times with ice-cold HBSS. Cells were lysed with 1% Triton X-100. […] Experiments were repeated three separate times, with three to four replicates in each experiment.
(§1) GraphPad Prism v6 (GraphPad Software, La Jolla, CA, USA) was used for statistical analysis.

[2] = test system: empty vector (EV) HEK293 cells; experiment: Concentration-dependent uptake of ASP+ in empty vector HEK293 cells; type: cell-based, human; conditions: EV HEK293, 0–100 μM, 1 min
Method: Figure 2 Time and Concentration-Dependent Accumulation of ASP^+ in HEK293 Cells Overexpressing OCT2 or MATE1. HEK cells expressing empty vector (EV), OCT2, or MATE1 were incubated for different time periods (0.5–20 min, 10 μM ASP^+, 37 °C) to evaluate time-dependent uptake (A) or with increasing concentrations of ASP^+ (0–100 μM, 1 min 37 °C) for concentration-dependent uptake (B) on a shaker. Specific transport uptake is shown in dashed lines. Intracellular fluorescence was quantified and normalized to protein concentration. Data are presented as mean ± SE (n = 3).
OCT2- and MATE1-overexpressing HEK293 cells were seeded in clear poly-^D-lysine-coated 24-well plates (Fisher Scientific, Hanover Park, IL, USA) and grown for 24 h until approximately 90% confluent. […]
GraphPad Prism v6 (GraphPad Software, La Jolla, CA, USA) was used for statistical analysis. Km and Vmax were calculated using nonlinear regression (Michaelis–Menten enzyme kinetics equation, (Y = Vmax × X/(Km + X), fit for least squares). Data with two variables were analyzed using a two-way ANOVA followed by a one-way ANOVA and/or Dunnett’s post-hoc test for multiple comparisons. IC50 values were calculated via a nonlinear regression to fit least squares. Differences were considered statistically significant at p < 0.05.

[3] = test system: OCT2 and MATE1; experiment: Bidirectional transcellular flux of ASP+ in OCT2/MATE1 double-transfected MDCK cells; type: cell-based, human; conditions: human, ASP+ 25 μM, read-out: B-to-A/A-to-B efflux ratio
Method: (§2) Figure 4 Transcellular Flux of ASP^+ in Control and OCT2/MATE1-Transfected MDCK cells. (A). Protein expression of OCT2 (~63 kDa,) and MATE1 (~54 kDa) in vector control MDCK cells (lanes 1–2) and OCT2/MATE1 double transfected (lanes 3–4). (B). Cells were incubated with ASP^+ (25 μM) in either apical or basolateral media for 120 min and fluorescence in apical or basolateral media was quantified (A-to-B: apical-to-basolateral; B-to-A: basolateral-to-apical). ^† p < 0.05 compared to A-to-B. ^‡ p < 0.05 compared to vector. (C). Cells were incubated with ASP^+ (25 μM) in basolateral media and positive control inhibitors in apical and basolateral media for 120 min. Fluorescence was measured in the apical chamber. (D). Intracellular fluorescence was quantified and normalized to protein concentration. Data are expressed as mean ± SE (n = 3). * p < 0.05 compared to no inhibitor. CIM–Cimetidine; PYR–Pyrimethamine; OLA–Olanzapine.
(§3) Cells were incubated with 5-HT3 antagonists in the apical chamber in HBSS pH 6.0 and 5-HT3 antagonists with ASP^+ (25 μM) in the basolateral chamber in HBSS pH 7.4 and incubated at 37 °C for 120 min. […]

[4] = test system: human OCT2 and MATE1; experiment: as above; type: cell-based; conditions: ASP+ 25 μM, 120 min
Method: as §2, §3

[5] = Bidirectional transcellular flux of ASP+ in control MDCK cells; type: cell-based, canine; conditions: dog, ASP+ 25 μM, read-out: B-to-A transport relative to A-to-B transport
Method: as §2, §3

[6] = test system: OCT2 and MATE1; experiment: Inhibition of basolateral-to-apical transcellular transport of ASP+ in OCT2/MATE1 double-transfected MDCK cells (Transwell); conditions: human, probe ASP+ (25 μM, basolateral chamber)
Method: (§4) Control and OCT2/MATE1-expressing MDCK cells were evaluated for protein expression of OCT2 and MATE1 using SDS-PAGE and western blotting with specific primary antibodies (OCT2, sc292622 1:500 and MATE1, sc133390 1:250, Santa Cruz Biotechnology, Santa Cruz, CA, USA), followed by an antirabbit HRP-conjugated secondary antibody (1:1000, Sigma Aldrich, St. Louis, MO, USA) and Super Signal Western Dura Extended Duration Substrate (Pierce Biotechnology, Rockford, IL, USA). Detection was performed with a FluorChem imager (ProteinSimple, Santa Clara, CA, USA). Both MDCK cell lines were seeded on 0.4 μm transwell inserts (VWR, Radnor, PA, USA) at a density of 2 × 10^5 cells/cm^2. Transport experiments were performed 3 to 5 days after seeding. The integrity of MDCK monolayers was verified by measuring transepithelial electrical resistance (TEER) >150 Ω*cm^2 using an epithelial voltohmmeter, EVOM^2 (World Precision Instruments, Sarasota, FL). Proper formation of tight junctions was also verified by measurement of passive permeability of lucifer yellow in the basolateral-to-apical (B-to-A) direction. Lucifer yellow (20 μM) was applied to the basolateral chamber for 1 h, and media were collected from the apical chamber.
(§5) After washing the cells once with Hank’s Buffered Saline Solution (HBSS) pH 7.4, transport studies were initiated after aspirating the wash buffer from both the apical and basal chambers. […] Cells were lysed with 1% Triton X-100. […] Intracellular fluorescence was normalized to total protein concentration of cell lysates from each transwell using the BCA assay. Experiments were performed in three individual Transwell inserts.

[7] = test system: human OCT2 and MATE1; experiment: as above; conditions: inhibitor 0.5–20 μM
Method: as §4, §5

[8] = test system: human OCT2 and MATE1; experiment: Intracellular accumulation of ASP+ in OCT2/MATE1 double-transfected MDCK cells; type: cell-based; conditions: 120 min
Method: (§6) Cells were incubated with 5-HT3 antagonists in the apical chamber in HBSS pH 6.0 and 5-HT3 antagonists with ASP^+ (25 μM) in the basolateral chamber in HBSS pH 7.4 and incubated at 37 °C for 120 min. To measure time-dependent transcellular transport, an aliquot of the incubation medium (100 μL) from the apical chamber (receiving chamber) was collected at 40, 60, 90, and 120 min and replaced with an equal volume of fresh buffer containing 5-HT3 antagonist or the positive control chemical at the original concentration. […] Cells were lysed with 1% Triton X-100. […] Experiments were performed in three individual Transwell inserts.

[9] = test system: vector control MDCK cells; experiment: Intracellular accumulation of ASP+ in vector control MDCK cells; type: cell-based, canine; conditions: 120 min
Method: as §6

[10] = no reference given, cited from earlier work
[11] = molecular target: T2, human OCT2 (Homo sapiens, UniProt O15244); experiment: Inhibition of ASP+ uptake in HEK293 cells overexpressing OCT2; type: cell-based; conditions: ASP+ 10 μM
T2 construct: expressed in transfected cells; gift of Dr. Kathy Giacomini, UCSF
T2 sequence (O15244 1-555): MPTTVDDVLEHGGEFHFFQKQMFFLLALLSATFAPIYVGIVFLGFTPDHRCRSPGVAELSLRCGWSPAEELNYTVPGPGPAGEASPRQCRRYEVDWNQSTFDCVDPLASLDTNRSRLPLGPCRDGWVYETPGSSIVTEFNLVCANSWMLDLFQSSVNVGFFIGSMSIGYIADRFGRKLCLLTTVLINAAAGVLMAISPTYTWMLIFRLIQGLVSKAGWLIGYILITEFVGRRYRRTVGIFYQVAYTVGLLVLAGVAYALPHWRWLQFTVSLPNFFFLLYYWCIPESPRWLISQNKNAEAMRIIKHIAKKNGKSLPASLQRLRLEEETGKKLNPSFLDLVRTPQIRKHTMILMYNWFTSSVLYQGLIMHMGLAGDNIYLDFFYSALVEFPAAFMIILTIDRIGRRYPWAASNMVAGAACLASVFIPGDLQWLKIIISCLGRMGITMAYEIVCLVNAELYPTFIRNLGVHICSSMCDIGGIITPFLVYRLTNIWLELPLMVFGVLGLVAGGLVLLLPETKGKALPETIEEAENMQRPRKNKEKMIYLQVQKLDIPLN
Method: (§7) After washing once with prewarmed Hank’s Buffered Saline Solution (HBSS), cells were preincubated for 30 min at 37 °C with various 5-HT3 antagonists for OCT2 cells or in a 30 mM NH4Cl solution in HBSS at pH 6.5 for MATE1 cells for intracellular acidification. Uptake into OCT2 cells was initiated through exposure to 10 μM of fluorescent substrate ASP^+ directly in the incubation media. Uptake into MATE1 cells was initiated by application of HBSS at pH 7.4 containing 5-HT3 antagonists and 10 μM of fluorescent substrate ASP^+. […] Media was removed and washed four times with ice-cold HBSS. Cells were lysed with 1% Triton X-100. […] Intracellular fluorescence was normalized to total protein concentration of cell lysates from each well using the bicinchoninic acid (BCA) assay (Pierce Biotechnology, Rockford, IL, USA). Experiments were repeated three separate times, with three to four replicates in each experiment.
as §1

[12] = molecular target: T1, MATE1; experiment: Inhibition of ASP+ uptake in HEK293 cells overexpressing MATE1; type: cell-based; conditions: inhibitor 10 μM, HEK293-MATE1 (data not shown)
Method: as §7, §1

[13] = test system: MDCK monolayers; experiment: Passive permeability of lucifer yellow across MDCK monolayers; type: in vitro ADME, canine; conditions: lucifer yellow 20 μM, B-to-A, 1 h
Method: Both MDCK cell lines were seeded on 0.4 μm transwell inserts (VWR, Radnor, PA, USA) at a density of 2 × 10^5 cells/cm^2. […] The integrity of MDCK monolayers was verified by measuring transepithelial electrical resistance (TEER) >150 Ω*cm^2 using an epithelial voltohmmeter, EVOM^2 (World Precision Instruments, Sarasota, FL). Proper formation of tight junctions was also verified by measurement of passive permeability of lucifer yellow in the basolateral-to-apical (B-to-A) direction. Lucifer yellow (20 μM) was applied to the basolateral chamber for 1 h, and media were collected from the apical chamber.

CN(C)c1ccc(C=Cc2cc[n+](C)cc2)cc1.[I-] [ASP^+, 4-(4-(Dimethylamino)styryl)-N-methylpyridinium iodide]
Vmax of ASP+ uptake ([1]; MATE1-expressing HEK293, 0–100 μM, 1 min): 3.4 nmol/mg/min | Km at 1 min ([1]; human, HEK293 cells overexpressing MATE1, pH 7.4, MATE1-expressing HEK293, 0–100 μM): 8.2 µM | Km [2]: 37.3 µM | Vmax of ASP+ uptake [2]: 1.9 nmol/mg/min | efflux ratio at 120 min, 25 μM [3]: 2.7 | B-to-A transport relative to A-to-B transport [4]: up to 2.8 fold | efflux ratio at 90 min, 25 μM ([5]; 90 min): 1.3 | efflux ratio at 120 min, 25 μM ([5]; 120 min): 1.7

Cc1nccn1CC1CCc2c(c3ccccc3n2C)C1=O (stereo not drawn) [Ondansetron]
inhibition at 120 min, 20 μM [6]: 36% | inhibition of basolateral-to-apical transcellular transport of ASP+, up to [7]: up to 64% | effect on B-to-A transport of ASP+ ([7]; 40–120 min, ASP+ 25 μM): inhibited the B-to-A transport of ASP^+ in a concentration-dependent manner; also recorded: inhibited the basolateral-to-apical ASP^+ secretion at all concentrations tested | increase in intracellular ASP+ accumulation ([8]; inhibitor 0.5 and 2.5 μM): 1.3 fold | effect on intracellular ASP+ accumulation ([8]; inhibitor 0.5–20 μM, ASP+ 25 μM): at concentrations of 0.5 and 2.5 μM caused significant intracellular accumulation of ASP^+; also recorded: no difference compared to vehicle at higher concentrations (10 and 20 μM) | decrease in accumulation of ASP+ in control cells ([9]; high concentrations of inhibitor): 40% | half-life [10]: < 6 h | metabolized by cytochrome P450 enzymes in the liver ([10]; range for the named drugs together): 48–95%

Cc1cc2c(s1)Nc1ccccc1N=C2N1CCN(C)CC1 [olanzapine]
effect on ASP+ uptake in OCT2-expressing HEK293 cells [11]: inhibited OCT2 activity across a range of concentrations | inhibition of MATE1 activity [12]: None of these drugs inhibited MATE1 activity | decrease in intracellular accumulation of ASP+ ([8]; inhibitor 20 μM): 51% | effect on intracellular accumulation of ASP+ in control cells ([9]; cimetidine 5 and 50 μM, pyrimethamine 1 μM, olanzapine 20 μM): modest decrease in ASP^+ accumulation

Lucifer yellow
Average passive permeability (Papp) [13]: 0.7 ×10⁻⁶ cm/s
